Source: patent US7998989B2, “2-Imino-1,3-thiazoline-based compounds and T-type calcium channel inhibitors containing the same” (Korea Institute of Science and Technology, priority 2007, dated 2011)

Legend:
[1] = target: T1, α1G T-type calcium channel (Homo sapiens, UniProt O43497); assay: Assay for % inhibiting activity against T-type calcium channel using FDSS6000 (fluo-3 calcium imaging, KCl activation); format: cell-based; details: HEK293, 10 μM; HEK293 cells stably expressing α1G T-type calcium channel and Kir2.1; compounds of the examples; read-out: FDSS (% inhibition)/10uM
T1 construct: host or cells: HEK293
T1 sequence (O43497 whole entry): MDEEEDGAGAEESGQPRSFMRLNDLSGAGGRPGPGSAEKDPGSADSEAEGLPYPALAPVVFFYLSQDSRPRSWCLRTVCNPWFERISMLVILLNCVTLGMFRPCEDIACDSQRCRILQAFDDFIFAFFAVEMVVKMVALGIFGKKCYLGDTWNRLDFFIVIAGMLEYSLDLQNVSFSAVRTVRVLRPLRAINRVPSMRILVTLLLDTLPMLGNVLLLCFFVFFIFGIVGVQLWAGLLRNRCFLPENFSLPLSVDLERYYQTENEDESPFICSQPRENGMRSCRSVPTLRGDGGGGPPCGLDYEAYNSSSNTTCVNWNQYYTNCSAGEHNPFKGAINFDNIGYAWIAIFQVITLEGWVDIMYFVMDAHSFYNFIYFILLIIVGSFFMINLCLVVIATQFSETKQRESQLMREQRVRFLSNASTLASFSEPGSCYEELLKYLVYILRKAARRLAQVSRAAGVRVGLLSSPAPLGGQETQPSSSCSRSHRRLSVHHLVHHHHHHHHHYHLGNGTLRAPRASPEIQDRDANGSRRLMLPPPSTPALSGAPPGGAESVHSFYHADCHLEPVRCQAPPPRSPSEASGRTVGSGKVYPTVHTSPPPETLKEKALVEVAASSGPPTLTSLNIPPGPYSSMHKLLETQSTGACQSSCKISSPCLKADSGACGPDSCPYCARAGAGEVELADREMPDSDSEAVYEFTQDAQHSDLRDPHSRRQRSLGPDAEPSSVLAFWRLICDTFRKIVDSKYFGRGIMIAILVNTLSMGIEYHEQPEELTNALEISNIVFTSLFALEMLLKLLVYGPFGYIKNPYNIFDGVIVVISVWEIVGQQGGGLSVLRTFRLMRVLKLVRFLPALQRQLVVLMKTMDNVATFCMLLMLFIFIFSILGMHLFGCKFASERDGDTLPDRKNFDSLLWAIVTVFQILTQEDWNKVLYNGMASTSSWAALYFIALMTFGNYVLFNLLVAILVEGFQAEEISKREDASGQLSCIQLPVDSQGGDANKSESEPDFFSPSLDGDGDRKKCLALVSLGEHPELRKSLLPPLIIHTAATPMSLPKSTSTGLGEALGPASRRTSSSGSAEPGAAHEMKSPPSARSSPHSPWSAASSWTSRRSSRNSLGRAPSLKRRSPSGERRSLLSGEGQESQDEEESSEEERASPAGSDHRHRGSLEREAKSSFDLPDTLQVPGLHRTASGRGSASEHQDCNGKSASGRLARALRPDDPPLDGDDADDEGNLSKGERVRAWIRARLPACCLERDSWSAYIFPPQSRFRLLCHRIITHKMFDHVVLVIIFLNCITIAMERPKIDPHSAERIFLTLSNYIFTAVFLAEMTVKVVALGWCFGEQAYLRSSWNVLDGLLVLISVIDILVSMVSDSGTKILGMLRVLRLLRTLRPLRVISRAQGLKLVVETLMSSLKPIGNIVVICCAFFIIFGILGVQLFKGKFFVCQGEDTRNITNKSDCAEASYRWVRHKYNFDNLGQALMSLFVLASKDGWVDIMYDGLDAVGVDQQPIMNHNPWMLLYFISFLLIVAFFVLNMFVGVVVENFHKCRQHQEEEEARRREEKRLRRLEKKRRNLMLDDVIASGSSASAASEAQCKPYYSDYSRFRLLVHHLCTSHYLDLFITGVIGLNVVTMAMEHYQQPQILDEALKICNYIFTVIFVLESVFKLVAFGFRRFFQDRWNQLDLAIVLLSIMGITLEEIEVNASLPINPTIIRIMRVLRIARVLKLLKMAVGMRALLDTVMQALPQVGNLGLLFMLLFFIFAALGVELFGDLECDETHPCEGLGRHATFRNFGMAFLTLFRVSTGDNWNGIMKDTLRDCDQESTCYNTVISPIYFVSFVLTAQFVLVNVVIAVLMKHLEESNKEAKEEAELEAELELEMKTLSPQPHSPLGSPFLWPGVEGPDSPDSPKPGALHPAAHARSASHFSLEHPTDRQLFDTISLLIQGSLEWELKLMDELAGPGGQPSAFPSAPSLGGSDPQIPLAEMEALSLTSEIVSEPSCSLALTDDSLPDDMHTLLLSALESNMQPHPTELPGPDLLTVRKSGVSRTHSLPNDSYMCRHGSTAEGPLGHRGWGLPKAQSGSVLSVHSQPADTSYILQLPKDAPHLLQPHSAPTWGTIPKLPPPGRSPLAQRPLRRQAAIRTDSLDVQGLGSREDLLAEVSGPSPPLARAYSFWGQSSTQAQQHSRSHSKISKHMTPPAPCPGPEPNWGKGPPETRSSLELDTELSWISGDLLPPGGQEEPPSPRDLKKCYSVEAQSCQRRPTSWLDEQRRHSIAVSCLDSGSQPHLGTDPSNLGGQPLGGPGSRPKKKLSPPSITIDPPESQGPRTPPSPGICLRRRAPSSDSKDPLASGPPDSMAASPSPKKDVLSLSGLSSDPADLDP
Summary of the method: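 Percent inhibition derived from […] area against untreated control (100%), after 75 s compound pre-exposure and 75 mM KCl activation. Cells: HEK293 with stable α1G plus Kir2.1, fluo-3/AM-labelled (5 μM), assayed in pH 7.4 HEPES containing 10 mM CaCl2.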

| melting point [°C] | inhibition at 10 µM [1] [%] | SMILES |
| --- | --- | --- |
| 221.3 | 36 | CN1C(=NCCc2ccccc2)SCC1CC(=O)Nc1cc(C(F)(F)F)cc(C(F)(F)F)c1.Cl (stereo not shown) [KHG24216, (2-phenethylimino-3-methyl-1,3-thiazolidine-4-yl)-N-(3,5-ditrifluoromethylphenyl)-acetamide hydrochloride] |
| 119.6 | 52.8 | CN1C(=NCC2CCCCC2)SCC1CC(=O)Nc1cc(C(F)(F)F)cc(C(F)(F)F)c1.Cl (stereo not shown) [KHG24218, (2-cyclohexylmethylimino-3-methyl-1,3-thiazolidine-4-yl)-N-(3,5-ditrifluoromethylphenyl)-acetamide hydrochloride] |
| 225 | 40.8 | CC(C)c1ccc(NC(=O)CC2CSC(=NCCc3ccccc3)N2C)cc1.Cl (stereo not shown) [KHG24220, (2-phenethylimino-3-methyl-1,3-thiazolidine-4-yl)-N-(4-isopropylphenyl)-acetamide hydrochloride] |
| 250.7 | 34.8 | CC(C)c1ccc(NC(=O)CC2CSC(=NCC3CCCCC3)N2C)cc1.Cl (stereo not shown) [KHG24222, (2-cyclohexylmethylimino-3-methyl-1,3-thiazolidine-4-yl)-N-(4-isopropylphenyl)-acetamide hydrochloride] |
| 225.5 | 32 | CN1C(=NCCc2ccccc2)SCC1CC(=O)Nc1ccc(Oc2ccccc2)cc1.Cl (stereo not shown) [KHG24224, (2-phenethylimino-3-methyl-1,3-thiazolidine-4-yl)-N-(4-phenoxyphenyl)-acetamide hydrochloride] |
| 226.7 | 48.6 | CN1C(=NCCc2ccccc2)SCC1CC(=O)Nc1ccc(Cl)cc1.Cl (stereo not shown) [KHG24228, (2-phenethylimino-3-methyl-1,3-thiazolidine-4-yl)-N-(4-chlorophenyl)-acetamide hydrochloride] |
| 177.1 | 33 | CN1C(=NCC2CCCCC2)SCC1CC(=O)Nc1ccc(Cl)cc1.Cl (stereo not shown) [KHG24230, (2-cyclohexylmethylimino-3-methyl-1,3-thiazolidine-4-yl)-N-(4-chlorophenyl)-acetamide hydrochloride] |
| 196.4 | 33.7 | CN1C(=NCCc2ccccc2)SCC1CC(=O)Nc1cc([N+](=O)[O-])ccc1F.Cl (stereo not shown) [KHG24232, (2-phenethylimino-3-methyl-1,3-thiazolidine-4-yl)-N-(2-fluoro-5-nitrophenyl)-acetamide hydrochloride] |
| 225 | 45.4 | CN1C(=NCC2CCCCC2)SCC1CC(=O)Nc1cc([N+](=O)[O-])ccc1F.Cl (stereo not shown) [KHG24234, (2-cyclohexylmethylimino-3-methyl-1,3-thiazolidine-4-yl)-N-(2-fluoro-5-nitrophenyl)-acetamide hydrochloride] |
| 226.4 | 65 | CCN1C(=NC2CCCCC2)SCC1CC(=O)Nc1cc(C(F)(F)F)cc(C(F)(F)F)c1.Cl (stereo not shown) [KHG24261, [2-cyclohexylimino-3-ethyl-1,3-thiazolidine-4-yl]-N-(3,5-ditrifluoromethylphenyl)-acetamide hydrochloride] |
| 194.3 | 53 | CCCCN1C(=NC2CCCCC2)SCC1CC(=O)Nc1ccc(Cl)cc1.Cl (stereo not shown) [KHG24262, [2-cyclohexylimino-3-(n-butyl)-1,3-thiazolidine-4-yl]-N-(4-chlorophenyl)-acetamide hydrochloride] |
| 215.2 | 52.1 | CCCCN1C(=NC2CCCCC2)SCC1CC(=O)Nc1ccc(Br)cc1.Cl (stereo not shown) [KHG24263, [2-cyclohexylimino-3-(n-butyl)-1,3-thiazolidine-4-yl]-N-(4-bromophenyl)-acetamide hydrochloride] |
| 197.3 | 71 | Cl.O=C(CC1CSC(=NC2CCCCC2)N1C1CC1)Nc1cc(C(F)(F)F)cc(C(F)(F)F)c1 (stereo not shown) [KHG24267, [2-cyclohexylimino-3-cyclopropyl-1,3-thiazolidine-4-yl]-N-(3,5-ditrifluoromethylphenyl)-acetamide hydrochloride] |
| 240.8 | 58.7 | Cl.O=C(CC1CSC(=NC2CCCCC2)N1C1CC1)Nc1ccc(C(F)(F)F)cc1 (stereo not shown) [KHG24268, [2-cyclohexylimino-3-cyclopropyl-1,3-thiazolidine-4-yl]-N-(4-trifluoromethylphenyl)-acetamide hydrochloride] |
| 195.6 | 62.6 | CCCCc1ccc(NC(=O)CC2CSC(=NC3CCCCC3)N2C2CC2)cc1.Cl (stereo not shown) [KHG24270, [2-cyclohexylimino-3-cyclopropyl-1,3-thiazolidine-4-yl]-N-(4-n-butylphenyl)-acetamide hydrochloride] |
| 183.7 | 37.8 | Cl.O=C(CC1CSC(=NC2CCCCC2)N1C1CC1)Nc1cc(Cl)ccc1F (stereo not shown) [KHG24271, [2-cyclohexylimino-3-cyclopropyl-1,3-thiazolidine-4-yl]-N-(5-chloro-2-fluorophenyl)-acetamide hydrochloride] |

| melting point [°C] | inhibition at 10 µM [1] [%] | SMILES |
| --- | --- | --- |
| 194.2 | 37.6 | CCc1ccc(NC(=O)CC2CSC(=NC3CCCCC3)N2C2CC2)cc1.Cl (stereo not shown) [KHG24272, [2-cyclohexylimino-3-cyclopropyl-1,3-thiazolidine-4-yl]-N-(4-ethylphenyl)-acetamide hydrochloride] |
| 188.9 | 48.5 | Cl.O=C(CC1CSC(=NC2CCCCC2)N1C1CC1)Nc1ccc(Br)cc1 (stereo not shown) [KHG24273, [2-cyclohexylimino-3-cyclopropyl-1,3-thiazolidine-4-yl]-N-(4-bromophenyl)-acetamide hydrochloride] |
| 160.3 | 42.8 | CCN1C(=NC2CCCCC2)SCC1CC(=O)Nc1ccc(Oc2ccccc2)cc1.Cl (stereo not shown) [KHG24276, [2-cyclohexylimino-3-ethyl-1,3-thiazolidine-4-yl]-N-(4-phenoxyphenyl)-acetamide hydrochloride] |
| 158.4 | 61.1 | CCCCc1ccc(NC(=O)CC2CSC(=NC3CCCCC3)N2CC)cc1.Cl (stereo not shown) [KHG24277, [2-cyclohexylimino-3-ethyl-1,3-thiazolidine-4-yl]-N-(4-n-butylphenyl)-acetamide hydrochloride] |
| 177 | 53.8 | CCN1C(=NC2CCCCC2)SCC1CC(=O)Nc1cc([N+](=O)[O-])ccc1F.Cl (stereo not shown) [KHG24278, [2-cyclohexylimino-3-ethyl-1,3-thiazolidine-4-yl]-N-(2-fluoro-5-nitrophenyl)-acetamide hydrochloride] |
| 211.9 | 44.1 | CCN1C(=NC2CCCCC2)SCC1CC(=O)Nc1ccc(C)cc1.Cl (stereo not shown) [KHG24279, [2-cyclohexylimino-3-ethyl-1,3-thiazolidine-4-yl]-N-(4-methylphenyl)-acetamide hydrochloride] |
| 191 | 54 | CCN1C(=NC2CCCCC2)SCC1CC(=O)Nc1ccc(C(F)(F)F)cc1.Cl (stereo not shown) [KHG24280, [2-cyclohexylimino-3-ethyl-1,3-thiazolidine-4-yl]-N-(4-trifluoromethylphenyl)-acetamide hydrochloride] |
| 213.3 | 31.4 | CCCCN1C(=NC2CCCCC2)SCC1CC(=O)Nc1ccc(Oc2ccccc2)cc1.Cl (stereo not shown) [KHG24281, [2-cyclohexylimino-3-(n-butyl)-1,3-thiazolidine-4-yl]-N-(4-phenoxyphenyl)-acetamide hydrochloride] |
| 209.1 | 43.6 | CCCCc1ccc(NC(=O)CC2CSC(=NC3CCCCC3)N2CCCC)cc1.Cl (stereo not shown) [KHG24282, [2-cyclohexylimino-3-(n-butyl)-1,3-thiazolidine-4-yl]-N-(4-n-butylphenyl)-acetamide hydrochloride] |
| 215.6 | 51.2 | CCCCN1C(=NC2CCCCC2)SCC1CC(=O)Nc1ccc(C(C)C)cc1.Cl (stereo not shown) [KHG24283, [2-cyclohexylimino-3-(n-butyl)-1,3-thiazolidine-4-yl]-N-(4-isopropylphenyl)-acetamide hydrochloride] |
| 203.5 | 44.6 | CCCCN1C(=NC2CCCCC2)SCC1CC(=O)Nc1ccc(F)cc1.Cl (stereo not shown) [KHG24284, [2-cyclohexylimino-3-(n-butyl)-1,3-thiazolidine-4-yl]-N-(4-fluorophenyl)-acetamide hydrochloride] |
| 183.4 | 46 | CCCCN1C(=NC2CCCCC2)SCC1CC(=O)Nc1ccc(C)cc1.Cl (stereo not shown) [KHG24285, [2-cyclohexylimino-3-(n-butyl)-1,3-thiazolidine-4-yl]-N-(4-methylphenyl)-acetamide hydrochloride] |
| 221.2 | 55.2 | CCCCN1C(=NC2CCCCC2)SCC1CC(=O)Nc1ccc(CC)cc1.Cl (stereo not shown) [KHG24286, [2-cyclohexylimino-3-(n-butyl)-1,3-thiazolidine-4-yl]-N-(4-ethylphenyl)-acetamide hydrochloride] |
| 206.8 | 58.5 | CCCN1C(=NC2CCCCC2)SCC1CC(=O)Nc1ccc(Cl)cc1.Cl (stereo not shown) [KHG24287, [2-cyclohexylimino-3-(n-propyl)-1,3-thiazolidine-4-yl]-N-(4-chlorophenyl)-acetamide hydrochloride] |
| 219.1 | 55 | CCCN1C(=NC2CCCCC2)SCC1CC(=O)Nc1ccc(Br)cc1.Cl (stereo not shown) [KHG24288, [2-cyclohexylimino-3-(n-propyl)-1,3-thiazolidine-4-yl]-N-(4-bromophenyl)-acetamide hydrochloride] |
| 230.3 | 62.2 | CCCN1C(=NC2CCCCC2)SCC1CC(=O)Nc1ccc(Oc2ccccc2)cc1.Cl (stereo not shown) [KHG24290, [2-cyclohexylimino-3-(n-propyl)-1,3-thiazolidine-4-yl]-N-(4-phenoxyphenyl)-acetamide hydrochloride] |
